The values below come from paper PMC9797592, “TJ-M2010-5, a novel CNS drug candidate, attenuates acute cerebral ischemia-reperfusion injury through the MyD88/NF-κB and ERK pathway” (Frontiers in Pharmacology, 2022).

The structures appear in SMILES notation.

One data set relates to SH-SY5Y cells. Kind of data set: CCK-8 cell viability assay, SH-SY5Y. It counts as cell-based. The procedure:
BV-2 and SH-SY5Y cells were seeded in a 96-well plate at a density of 1 × 10^4 cells/well. Twenty-4 hours later, different concentrations of TJ-5 (0, 1, 5, 10, 20, and 30 μM) were added and co-cultured with cells for 24 h. Cell Counting Kit-8 (CCK8, Sigma, Shanghai, China) was used to measure cell viability. Experiments were conducted according to the manufacturer’s instructions. After incubation at 37°C for 2 h, absorbance was measured at 450 nm using a microplate reader (Synergy 2, BioTek Instruments, United States).

Data set [1] relates to MyD88/NF-κB and ERK signaling pathway. Description: Simple Western / RT-qPCR of MyD88/NF-κB and ERK pathway in the brain of CIRI mice. It counts as in vivo, C57BL/6 mice. The settings on record: TJ-5 15 mg/kg. The method, then: Total mRNA was extracted from the brain cortex using TRIzol reagent and reverse-transcribed into cDNA using the PrimeScript™ RT reagent kit (Takara, Japan), following the manufacturer’s instructions. RT-qPCR was performed using SYBR Green Real-time PCR Master Mix (Takara, Japan) with the Step One System (Life Technologies). The results were expressed as fold change from the untreated control and analyzed using the 2^−ΔΔCt method. The primers were as follows (5′–3′): MyD88 forward: TTTATCTGCTACTGCCCCAACG, reverse: GCGGCGACACCTTTTCTCA; TLR4 forward: ATGCTGCAACTGATGTTCCTTC, reverse: GATGTTAGACCTTTCTTCCTCCC; GAPDH forward: TGTTCCTACCCCCAATGTGTCC, reverse: GGAGTTGCTGTTGAAGTCGCAG; TNF-α forward: ATGGCCTCCCTCTCATCAGT, reverse: TGGTTTGCTACGACGTGGG; IL-6 forward: AGTGGCTAAGGACCAAGAC, reverse: ATAACGCACTAGGTTTGCCGA; iNOS forward: ATTCACAGCTCATCCGGTACG, reverse: GGATCTTGACCATCAGCTTGC; IL-1β forward: GCACTACAGGCTCCGAGATGAA, reverse: GTCGTTGCTTGGTTCTCCTTGT.
Here, Simple Western, a novel immunoassay to detect proteins in the brain, was used, as previously described ([Kannan et al., 2018]; [Nanki et al., 2018]). Briefly, the prepared proteins were diluted to a concentration of 0.5 mg/ml using a sample preparation kit (Protein Simple, United States). Then, according to the manufacturer’s instructions, the prepared reagents were added to the detection plate sequentially for processing in an automated capillary electrophoresis system (Simple Western system). The primary antibodies recognized HMGB1, TLR4, MyD88, NeuN, P-ERK, P-IκBα, IκBα, NF-κB p65 (CST, 1:50), Histone H3 (ABclonal, 1:50), and GAPDH (ABclonal, 1:1000). Compass for SW software v4.0.0 (Protein Simple, United States) was used to quantitatively analyze the signal intensity (area) of the protein.

On to `O=C(CCN1CCN(Cc2ccccc2)CC1)Nc1nc(-c2ccccc2)cs1` [TJ-5], for which the neurotoxicity result with SH-SY5Y cells (SH-SY5Y cells) was “no neurotoxicity”. The “viability of SH-SY5Y cells” value in the data set on SH-SY5Y cells (concentrations below 20 μM, 24 h, CCK-8) was “did not affect the viability”. In data set [1], the “expression of HMGB1, TLR4, and MyD88 in the ischemic hemisphere” value is recorded as “downregulated”; the “phosphorylation of ERK in the ischemic hemisphere” value is on record as “inhibited”; the “phosphorylation of IκBα and nuclear translocation of NF-κB p65 in the ischemic hemisphere” value is recorded as “reduced”. The “NeuN protein levels in the brain” value in data set [1] (I/R-induced decrease) was “attenuated this decrease”.
